Experimental data reported in ChEMBL document CHEMBL4507272 (2021).

What was measured:
[1] = target: Tyrosine-protein kinase Fer (Homo sapiens) (UniProt P16591); conditions: Compound concentration 1000.0 nM
[2] = target: Serine/threonine-protein kinase Nek7 (Homo sapiens) (UniProt Q8TDX7); conditions: Compound concentration 1000.0 nM
[3] = target: Leucine-rich repeat serine/threonine-protein kinase 2 (Homo sapiens) (UniProt Q5S007); conditions: Compound concentration 1000.0 nM
[4] = target: Serine/threonine-protein kinase 17B (Homo sapiens) (UniProt O94768); conditions: Compound concentration 1000.0 nM
Sequence of Serine/threonine-protein kinase 17B (Homo sapiens) (O94768 whole entry): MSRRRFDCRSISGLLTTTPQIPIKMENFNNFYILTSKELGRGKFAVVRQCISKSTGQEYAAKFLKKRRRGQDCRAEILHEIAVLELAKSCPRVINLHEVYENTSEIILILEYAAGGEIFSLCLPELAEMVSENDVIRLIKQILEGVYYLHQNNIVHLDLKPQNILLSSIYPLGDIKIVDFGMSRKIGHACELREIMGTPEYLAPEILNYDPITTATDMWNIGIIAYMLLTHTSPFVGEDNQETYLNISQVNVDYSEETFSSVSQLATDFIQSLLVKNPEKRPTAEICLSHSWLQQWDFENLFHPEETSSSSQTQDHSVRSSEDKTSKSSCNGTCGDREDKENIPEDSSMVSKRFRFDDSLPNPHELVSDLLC

[5] = target: Serine/threonine-protein kinase 32B (Homo sapiens) (UniProt Q9NY57); conditions: Compound concentration 1000.0 nM
[6] = target: Tyrosine-protein kinase Fgr (Homo sapiens) (UniProt P09769); conditions: Compound concentration 1000.0 nM
[7] = system: Phosphatidylinositol 4,5-bisphosphate 3-kinase catalytic subunit alpha isoform (Homo sapiens), P42336 [H1047Y]; conditions: Compound concentration 1000.0 nM
[8] = target: Muscarinic acetylcholine receptor M5 (Homo sapiens) (UniProt P08912); conditions: Compound concentration 10.0 uM
[9] = target: Ephrin type-B receptor 3 (Homo sapiens) (UniProt P54753); conditions: Compound concentration 1000.0 nM
[10] = target: BMP-2-inducible protein kinase (Homo sapiens) (UniProt Q9NSY1); conditions: Compound concentration 1000.0 nM
[11] = target: Homeodomain-interacting protein kinase 1 (Homo sapiens) (UniProt Q86Z02); conditions: Compound concentration 1000.0 nM
[12] = target: Ribosomal protein S6 kinase alpha-5 (Homo sapiens) (UniProt O75582); conditions: Compound concentration 1000.0 nM
[13] = target: Dual specificity protein kinase CLK1 (Homo sapiens) (UniProt P49759); conditions: Compound concentration 1000.0 nM
[14] = target: Interleukin-1 receptor-associated kinase 1 (Homo sapiens) (UniProt P51617); conditions: Compound concentration 1000.0 nM
Sequence of Interleukin-1 receptor-associated kinase 1 (Homo sapiens) (P51617 whole entry, looked up, canonical isoform): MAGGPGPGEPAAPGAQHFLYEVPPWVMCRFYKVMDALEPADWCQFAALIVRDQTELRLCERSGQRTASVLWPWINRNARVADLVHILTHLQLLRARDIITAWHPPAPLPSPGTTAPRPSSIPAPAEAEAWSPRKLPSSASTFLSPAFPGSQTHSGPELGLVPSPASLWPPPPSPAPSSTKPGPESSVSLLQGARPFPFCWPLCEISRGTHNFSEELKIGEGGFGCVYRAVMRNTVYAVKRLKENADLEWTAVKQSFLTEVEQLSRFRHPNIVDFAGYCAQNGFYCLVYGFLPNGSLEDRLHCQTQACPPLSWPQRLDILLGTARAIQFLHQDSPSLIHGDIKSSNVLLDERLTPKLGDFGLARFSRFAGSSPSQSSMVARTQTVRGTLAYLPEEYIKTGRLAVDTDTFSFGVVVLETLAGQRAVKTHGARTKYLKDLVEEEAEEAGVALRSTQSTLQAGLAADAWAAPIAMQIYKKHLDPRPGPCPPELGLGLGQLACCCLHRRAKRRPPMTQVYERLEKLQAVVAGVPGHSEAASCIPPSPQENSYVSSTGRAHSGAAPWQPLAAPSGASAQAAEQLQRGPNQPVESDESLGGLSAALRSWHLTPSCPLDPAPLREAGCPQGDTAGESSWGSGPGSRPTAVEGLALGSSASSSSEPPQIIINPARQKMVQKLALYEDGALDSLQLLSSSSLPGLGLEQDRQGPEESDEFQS

[15] = system: Phosphatidylinositol 4,5-bisphosphate 3-kinase catalytic subunit alpha isoform (Homo sapiens), P42336 [Q546K]; conditions: Compound concentration 1000.0 nM
[16] = target: Citron Rho-interacting kinase (Homo sapiens) (UniProt O14578); conditions: Compound concentration 1000.0 nM
[17] = target: Serine/threonine-protein kinase 33 (Homo sapiens) (UniProt Q9BYT3); conditions: Compound concentration 1000.0 nM
[18] = target: Ephrin type-A receptor 4 (Homo sapiens) (UniProt P54764); conditions: Compound concentration 1000.0 nM
Sequence of Ephrin type-A receptor 4 (Homo sapiens) (P54764 whole entry): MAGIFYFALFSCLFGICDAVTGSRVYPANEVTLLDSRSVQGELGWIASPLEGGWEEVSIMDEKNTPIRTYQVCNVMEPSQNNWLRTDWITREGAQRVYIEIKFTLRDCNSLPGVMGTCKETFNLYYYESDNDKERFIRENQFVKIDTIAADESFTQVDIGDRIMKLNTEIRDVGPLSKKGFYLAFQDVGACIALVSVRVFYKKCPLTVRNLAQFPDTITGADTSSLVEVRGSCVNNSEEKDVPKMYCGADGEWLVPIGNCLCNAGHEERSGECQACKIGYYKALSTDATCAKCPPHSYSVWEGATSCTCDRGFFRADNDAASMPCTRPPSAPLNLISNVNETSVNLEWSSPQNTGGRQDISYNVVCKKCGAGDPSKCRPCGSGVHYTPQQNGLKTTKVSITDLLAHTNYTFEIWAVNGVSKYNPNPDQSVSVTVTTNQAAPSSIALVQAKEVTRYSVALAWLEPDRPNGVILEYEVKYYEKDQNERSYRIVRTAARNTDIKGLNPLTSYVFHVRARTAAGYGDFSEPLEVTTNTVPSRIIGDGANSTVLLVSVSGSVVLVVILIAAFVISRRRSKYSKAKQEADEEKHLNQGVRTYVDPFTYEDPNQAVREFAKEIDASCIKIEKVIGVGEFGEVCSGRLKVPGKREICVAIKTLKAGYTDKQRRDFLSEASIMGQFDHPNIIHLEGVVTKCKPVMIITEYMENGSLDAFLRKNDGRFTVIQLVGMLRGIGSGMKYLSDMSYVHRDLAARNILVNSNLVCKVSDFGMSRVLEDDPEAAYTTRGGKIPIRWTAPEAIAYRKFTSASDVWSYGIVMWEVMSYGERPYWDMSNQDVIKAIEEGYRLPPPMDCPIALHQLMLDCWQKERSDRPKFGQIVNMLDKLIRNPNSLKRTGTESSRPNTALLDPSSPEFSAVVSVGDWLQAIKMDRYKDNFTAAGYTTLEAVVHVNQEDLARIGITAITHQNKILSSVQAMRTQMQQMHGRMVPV

[19] = target: Cyclin-dependent kinase 4 (Homo sapiens) (UniProt P11802); conditions: Compound concentration 1000.0 nM
Sequence of Cyclin-dependent kinase 4 (Homo sapiens) (P11802 whole entry): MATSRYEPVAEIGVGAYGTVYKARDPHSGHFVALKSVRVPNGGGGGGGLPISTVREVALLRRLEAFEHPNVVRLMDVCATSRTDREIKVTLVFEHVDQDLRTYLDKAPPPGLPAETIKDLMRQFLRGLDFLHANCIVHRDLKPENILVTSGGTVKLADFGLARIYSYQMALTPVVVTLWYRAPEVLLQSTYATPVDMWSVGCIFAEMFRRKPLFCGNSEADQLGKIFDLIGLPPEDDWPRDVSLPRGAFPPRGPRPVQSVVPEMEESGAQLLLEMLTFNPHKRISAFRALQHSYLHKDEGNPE

[20] = target: Rho-associated protein kinase 1 (Homo sapiens) (UniProt Q13464); conditions: Compound concentration 1000.0 nM
[21] = target: Tyrosine-protein kinase Mer (Homo sapiens) (UniProt Q12866); conditions: Compound concentration 1000.0 nM
[22] = target: Histamine H1 receptor (Homo sapiens) (UniProt P35367); conditions: Compound concentration 10.0 uM
Sequence of Histamine H1 receptor (Homo sapiens) (P35367 whole entry): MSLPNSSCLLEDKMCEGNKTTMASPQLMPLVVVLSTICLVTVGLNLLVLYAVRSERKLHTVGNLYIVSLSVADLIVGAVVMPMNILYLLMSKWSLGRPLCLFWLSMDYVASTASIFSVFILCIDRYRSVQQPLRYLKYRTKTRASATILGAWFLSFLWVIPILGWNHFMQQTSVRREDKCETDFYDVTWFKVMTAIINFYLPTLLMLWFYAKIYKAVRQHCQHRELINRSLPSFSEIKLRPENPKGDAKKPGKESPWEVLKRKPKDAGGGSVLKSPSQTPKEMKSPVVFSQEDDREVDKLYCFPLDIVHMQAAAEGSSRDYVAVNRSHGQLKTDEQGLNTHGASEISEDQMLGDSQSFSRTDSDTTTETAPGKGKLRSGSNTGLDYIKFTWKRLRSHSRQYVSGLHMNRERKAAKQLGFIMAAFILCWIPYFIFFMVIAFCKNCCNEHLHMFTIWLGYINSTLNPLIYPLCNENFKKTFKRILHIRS

[23] = target: Serine/threonine-protein kinase Nek3 (Homo sapiens) (UniProt P51956); conditions: Compound concentration 1000.0 nM
Sequence of Serine/threonine-protein kinase Nek3 (Homo sapiens) (P51956 whole entry): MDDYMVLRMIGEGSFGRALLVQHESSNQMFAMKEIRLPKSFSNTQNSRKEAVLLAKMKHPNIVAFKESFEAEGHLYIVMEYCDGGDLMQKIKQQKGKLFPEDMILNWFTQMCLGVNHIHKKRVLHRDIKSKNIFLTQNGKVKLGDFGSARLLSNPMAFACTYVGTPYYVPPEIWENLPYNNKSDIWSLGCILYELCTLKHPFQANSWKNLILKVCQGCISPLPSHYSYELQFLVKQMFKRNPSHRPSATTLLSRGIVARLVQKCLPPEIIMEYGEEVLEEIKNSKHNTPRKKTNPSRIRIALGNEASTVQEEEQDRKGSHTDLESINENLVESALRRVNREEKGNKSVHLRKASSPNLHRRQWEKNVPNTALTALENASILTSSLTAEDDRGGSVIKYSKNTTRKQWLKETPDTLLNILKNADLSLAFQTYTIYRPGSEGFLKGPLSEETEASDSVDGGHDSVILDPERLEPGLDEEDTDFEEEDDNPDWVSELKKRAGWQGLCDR

[24] = target: Serine/threonine-protein kinase LATS2 (Homo sapiens) (UniProt Q9NRM7); conditions: Compound concentration 1000.0 nM
[25] = target: Serine/threonine-protein kinase TAO2 (Homo sapiens) (UniProt Q9UL54); conditions: Compound concentration 1000.0 nM
[26] = target: Tyrosine-protein kinase HCK (Homo sapiens) (UniProt P08631); conditions: Compound concentration 1000.0 nM
[27] = target: Dual specificity protein kinase TTK (Homo sapiens) (UniProt P33981); conditions: Compound concentration 1000.0 nM
[28] = target: Bone morphogenetic protein receptor type-2 (Homo sapiens) (UniProt Q13873); conditions: Compound concentration 1000.0 nM
Sequence of Bone morphogenetic protein receptor type-2 (Homo sapiens) (Q13873 whole entry): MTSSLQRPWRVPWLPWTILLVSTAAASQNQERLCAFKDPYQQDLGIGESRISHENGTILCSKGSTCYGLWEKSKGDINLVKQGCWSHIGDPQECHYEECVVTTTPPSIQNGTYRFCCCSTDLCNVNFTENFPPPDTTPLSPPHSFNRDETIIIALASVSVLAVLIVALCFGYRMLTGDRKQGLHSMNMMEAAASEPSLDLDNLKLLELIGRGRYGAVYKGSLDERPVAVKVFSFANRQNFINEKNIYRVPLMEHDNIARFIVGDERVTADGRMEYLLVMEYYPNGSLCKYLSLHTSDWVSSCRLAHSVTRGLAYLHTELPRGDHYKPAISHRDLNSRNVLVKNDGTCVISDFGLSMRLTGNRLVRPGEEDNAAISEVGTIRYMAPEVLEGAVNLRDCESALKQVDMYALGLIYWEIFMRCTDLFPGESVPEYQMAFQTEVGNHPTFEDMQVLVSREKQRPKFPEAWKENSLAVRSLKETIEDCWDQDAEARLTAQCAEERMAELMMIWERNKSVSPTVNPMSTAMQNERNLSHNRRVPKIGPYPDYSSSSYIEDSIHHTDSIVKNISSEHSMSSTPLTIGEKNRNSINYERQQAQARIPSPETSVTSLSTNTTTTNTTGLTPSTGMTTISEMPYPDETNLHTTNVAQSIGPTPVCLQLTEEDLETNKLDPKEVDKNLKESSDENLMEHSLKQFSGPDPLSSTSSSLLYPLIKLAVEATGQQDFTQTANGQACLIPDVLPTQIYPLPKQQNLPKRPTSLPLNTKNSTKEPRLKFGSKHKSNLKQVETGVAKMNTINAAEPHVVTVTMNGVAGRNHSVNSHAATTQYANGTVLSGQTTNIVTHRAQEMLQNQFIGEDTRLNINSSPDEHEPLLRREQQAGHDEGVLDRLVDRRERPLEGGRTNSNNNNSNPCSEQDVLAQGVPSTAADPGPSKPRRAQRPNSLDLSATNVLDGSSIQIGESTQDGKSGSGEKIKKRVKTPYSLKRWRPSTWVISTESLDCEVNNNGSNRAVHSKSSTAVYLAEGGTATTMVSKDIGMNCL

[29] = target: Serine/threonine-protein kinase ICK (Homo sapiens) (UniProt Q9UPZ9); conditions: Compound concentration 1000.0 nM
[30] = target: Dual specificity tyrosine-phosphorylation-regulated kinase 1A (Homo sapiens) (UniProt Q13627); conditions: Compound concentration 1000.0 nM
[31] = target: 5-hydroxytryptamine receptor 5A (Homo sapiens) (UniProt P47898); conditions: Compound concentration 10.0 uM
[32] = target: Mitotic checkpoint serine/threonine-protein kinase BUB1 (Homo sapiens) (UniProt O43683); conditions: Compound concentration 1000.0 nM
[33] = target: Ribosomal protein S6 kinase alpha-3 (Homo sapiens) (UniProt P51812); conditions: Compound concentration 1000.0 nM
[34] = target: Mitogen-activated protein kinase 13 (Homo sapiens) (UniProt O15264); conditions: Compound concentration 1000.0 nM
[35] = target: Macrophage-stimulating protein receptor (Homo sapiens) (UniProt Q04912); conditions: Compound concentration 1000.0 nM
[36] = target: Mitogen-activated protein kinase 4 (Homo sapiens) (UniProt P31152); conditions: Compound concentration 1000.0 nM
[37] = target: Cyclin-dependent kinase 4 (Homo sapiens) (UniProt P11802); conditions: Compound concentration 1000.0 nM; remark: listed apart in the source
[38] = target: Serine/threonine-protein kinase pim-3 (Homo sapiens) (UniProt Q86V86); conditions: Compound concentration 1000.0 nM
[39] = target: TGF-beta receptor type-1 (Homo sapiens) (UniProt P36897); conditions: Compound concentration 1000.0 nM
[40] = target: Cyclin-dependent kinase 11B (Homo sapiens) (UniProt P21127); conditions: Compound concentration 1000.0 nM
[41] = target: Serine/threonine-protein kinase BRSK1 (Homo sapiens) (UniProt Q8TDC3); conditions: Compound concentration 1000.0 nM
[42] = target: Cyclin-dependent kinase-like 2 (Homo sapiens) (UniProt Q92772); conditions: Compound concentration 1000.0 nM
[43] = target: Uncharacterized serine/threonine-protein kinase SBK3 (Homo sapiens) (UniProt P0C264); conditions: Compound concentration 1000.0 nM
[44] = target: Phosphatidylinositol 4,5-bisphosphate 3-kinase catalytic subunit gamma isoform (Homo sapiens) (UniProt P48736); conditions: Compound concentration 1000.0 nM
[45] = target: Serine/threonine-protein kinase D3 (Homo sapiens) (UniProt O94806); conditions: Compound concentration 1000.0 nM

Sequence of Serine/threonine-protein kinase Nek7 (Homo sapiens) (Q8TDX7 whole entry, looked up): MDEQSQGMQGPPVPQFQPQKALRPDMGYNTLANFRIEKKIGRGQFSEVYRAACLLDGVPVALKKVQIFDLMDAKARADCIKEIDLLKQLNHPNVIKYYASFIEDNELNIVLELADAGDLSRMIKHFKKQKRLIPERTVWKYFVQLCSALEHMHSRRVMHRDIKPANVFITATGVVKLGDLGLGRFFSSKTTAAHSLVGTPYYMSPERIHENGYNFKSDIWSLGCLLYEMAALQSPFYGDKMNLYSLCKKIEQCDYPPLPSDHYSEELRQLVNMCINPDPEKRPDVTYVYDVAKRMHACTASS

CC(=O)C1=C(C)N(c2cccc(C(F)(F)F)c2)C(=O)N[C@@H]1c1ccc(C#N)nc1 [BAY-678]
inactive: residual activity [1] 96.9% | residual activity [2] 100% | residual activity [3] 80.7% | residual activity [4] 100% | residual activity [5] 100% | residual activity [6] 86.7% | residual activity [7] 87.6% | inhibition [8] -6.78% | residual activity [9] 100% | residual activity [10] 100% | residual activity [11] 72.6% | residual activity [12] 89.2% | residual activity [13] 100% | residual activity [14] 100% | residual activity [15] 100% | residual activity [16] 77.6% | residual activity [17] 91.6% | residual activity [18] 100% | residual activity [19] 100% | residual activity [20] 100% | residual activity [21] 100% | inhibition [22] 34.1% | residual activity [23] 72% | residual activity [24] 100% | residual activity [25] 94.4% | residual activity [26] 87.7% | residual activity [27] 97.9% | residual activity [28] 100% | residual activity [29] 100% | residual activity [30] 100% | inhibition [31] 4.22% | residual activity [32] 100% | residual activity [33] 100% | residual activity [34] 74.6% | residual activity [35] 81.1% | residual activity [36] 100% | residual activity [37] 100% | residual activity [38] 100% | residual activity [39] 99.2% | residual activity [40] 100% | residual activity [41] 100% | residual activity [42] 75.4% | residual activity [43] 100% | residual activity [44] 100% | residual activity [45] 78%
